# Assay results taken from ChEMBL document CHEMBL2331144, “Synthesis and anticancer activity of analogues of phenstatin, with a phenothiazine A-ring, as a new class of microtubule-targeting agents” (Bioorg Med Chem Lett, 2013).
# Key:
# [1] = Inhibition of sheep brain tubulin polymerization using DAPI by fluorimetry; parameters: species or system Ovis aries
# KM12 = experiment: Growth inhibition of human KM12 cells after 48 hrs by sulforhodamine B assay; assay type: functional; conditions: KM12, 48 h
# UO-31 = experiment: Growth inhibition of human UO31 cells after 48 hrs by sulforhodamine B assay; assay type: functional; conditions: UO-31, 48 h
# Malme-3M = experiment: Growth inhibition of human MALME-3M cells after 48 hrs by sulforhodamine B assay; assay type: functional
# A549 = experiment: Growth inhibition of human A549/ATCC cells after 48 hrs by sulforhodamine B assay; assay type: functional; conditions: A549, 48 h
# HT-29 = experiment: Growth inhibition of human HT-29 cells after 48 hrs by sulforhodamine B assay; assay type: functional; conditions: HT-29, 48 h
# CCRF-CEM = experiment: Growth inhibition of human CCRF-CEM cells after 48 hrs by sulforhodamine B assay; assay type: functional
# MOLT-4 = experiment: Growth inhibition of human MOLT4 cells after 48 hrs by sulforhodamine B assay; assay type: functional; conditions: MOLT-4, 48 h
# SR = experiment: Growth inhibition of human SR cells after 48 hrs by sulforhodamine B assay; assay type: functional
# OVCAR-4 = experiment: Growth inhibition of human OVCAR4 cells after 48 hrs by sulforhodamine B assay; assay type: functional; conditions: OVCAR-4, 48 h
# SF-268 = experiment: Growth inhibition of human SF268 cells after 48 hrs by sulforhodamine B assay; assay type: functional; conditions: SF-268, 48 h
# MDA-MB-468 = experiment: Growth inhibition of human MDA-MB-468 cells after 48 hrs by sulforhodamine B assay; assay type: functional; conditions: MDA-MB-468, 48 h
# CAKI-1 = experiment: Growth inhibition of human CAKI-1 cells after 48 hrs by sulforhodamine B assay; assay type: functional; conditions: CAKI-1, 48 h
# SNB-75 = experiment: Growth inhibition of human SNB75 cells after 48 hrs by sulforhodamine B assay; assay type: functional; conditions: SNB-75, 48 h
# OVCAR-8 = experiment: Growth inhibition of human OVCAR8 cells after 48 hrs by sulforhodamine B assay; assay type: functional; conditions: OVCAR-8, 48 h
# K562 = experiment: Growth inhibition of human K562 cells after 48 hrs by sulforhodamine B assay; assay type: functional; conditions: K562, 48 h
# NCI-H23 = experiment: Growth inhibition of human NCI-H23 cells after 48 hrs by sulforhodamine B assay; assay type: functional; conditions: NCI-H23, 48 h
# Ovis aries = species on record: Ovis aries; experiment: Inhibition of sheep brain tubulin polymerization at 100 uM using DAPI by fluorimetry
# UACC-62 = experiment: Growth inhibition of human UACC62 cells after 48 hrs by sulforhodamine B assay; assay type: functional; conditions: UACC-62, 48 h
# SK-MEL-28 = experiment: Growth inhibition of human SK-MEL-28 cells after 48 hrs by sulforhodamine B assay; assay type: functional; conditions: SK-MEL-28, 48 h
# BT-549 = experiment: Growth inhibition of human BT549 cells after 48 hrs by sulforhodamine B assay; assay type: functional; conditions: BT-549, 48 h
# SW-620 = experiment: Growth inhibition of human SW620 cells after 48 hrs by sulforhodamine B assay; assay type: functional; conditions: SW-620, 48 h
# IGROV-1 = experiment: Growth inhibition of human IGROV1 cells after 48 hrs by sulforhodamine B assay; assay type: functional; conditions: IGROV-1, 48 h
# M14 = experiment: Growth inhibition of human M14 cells after 48 hrs by sulforhodamine B assay; assay type: functional; conditions: M14, 48 h
# HOP-62 = experiment: Growth inhibition of human HOP62 cells after 48 hrs by sulforhodamine B assay; assay type: functional; conditions: HOP-62, 48 h
# ACHN = experiment: Growth inhibition of human ACHN cells after 48 hrs by sulforhodamine B assay; assay type: functional
# [2] = Growth inhibition of human NCI-ADR-RES cells after 48 hrs by sulforhodamine B assay; assay type: functional
# 786-0 = experiment: Growth inhibition of human 786-0 cells after 48 hrs by sulforhodamine B assay; assay type: functional; conditions: 786-0, 48 h
# [3] = Growth inhibition of human HCC2998 cells after 48 hrs by sulforhodamine B assay; assay type: functional; conditions: HCC 2998, 48 h
# SF-539 = experiment: Growth inhibition of human SF539 cells after 48 hrs by sulforhodamine B assay; assay type: functional; conditions: SF-539, 48 h
# MDA-MB-231 = experiment: Growth inhibition of human MDA-MB-231 cells after 48 hrs by sulforhodamine B assay; assay type: functional; conditions: MDA-MB-231, 48 h
# SK-MEL-2 = experiment: Growth inhibition of human SK-MEL-2 cells after 48 hrs by sulforhodamine B assay; assay type: functional; conditions: SK-MEL-2, 48 h
# SK-MEL-5 = experiment: Growth inhibition of human SK-MEL-5 cells after 48 hrs by sulforhodamine B assay; assay type: functional; conditions: SK-MEL-5, 48 h
# LOX IMVI = experiment: Growth inhibition of human LOXIMVI cells after 48 hrs by sulforhodamine B assay; assay type: functional
# MCF7 = experiment: Growth inhibition of human MCF7 cells after 48 hrs by sulforhodamine B assay; assay type: functional; conditions: MCF7, 48 h
# RXF 393 = experiment: Growth inhibition of human RXF393 cells after 48 hrs by sulforhodamine B assay; assay type: functional; conditions: RXF 393, 48 h
# HCT-15 = experiment: Growth inhibition of human HCT15 cells after 48 hrs by sulforhodamine B assay; assay type: functional; conditions: HCT-15, 48 h
# A498 = experiment: Growth inhibition of human A498 cells after 48 hrs by sulforhodamine B assay; assay type: functional; conditions: A498, 48 h
# TK-10 = experiment: Growth inhibition of human TK10 cells after 48 hrs by sulforhodamine B assay; assay type: functional; conditions: TK-10, 48 h
# OVCAR-3 = experiment: Growth inhibition of human OVCAR3 cells after 48 hrs by sulforhodamine B assay; assay type: functional; conditions: OVCAR-3, 48 h
# COLO 205 = experiment: Growth inhibition of human COLO205 cells after 48 hrs by sulforhodamine B assay; assay type: functional; conditions: COLO 205, 48 h
# T47D = experiment: Growth inhibition of human T47D cells after 48 hrs by sulforhodamine B assay; assay type: functional
# HCT-116 = experiment: Growth inhibition of human HCT116 cells after 48 hrs by sulforhodamine B assay; assay type: functional; conditions: HCT-116, 48 h
# UACC-257 = experiment: Growth inhibition of human UACC257 cells after 48 hrs by sulforhodamine B assay; assay type: functional; conditions: UACC-257, 48 h
# SF-295 = experiment: Growth inhibition of human SF295 cells after 48 hrs by sulforhodamine B assay; assay type: functional; conditions: SF-295, 48 h
# PC-3 = experiment: Growth inhibition of human PC3 cells after 48 hrs by sulforhodamine B assay; assay type: functional; conditions: PC-3, 48 h
# RPMI-8226 = experiment: Growth inhibition of human RPMI8226 cells after 48 hrs by sulforhodamine B assay; assay type: functional; conditions: RPMI-8226, 48 h
# SN12C = experiment: Growth inhibition of human SN12C cells after 48 hrs by sulforhodamine B assay; assay type: functional
# MDA-MB-435 = experiment: Growth inhibition of human MDA-MB-435 cells after 48 hrs by sulforhodamine B assay; assay type: functional; conditions: MDA-MB-435, 48 h
# HL-60(TB) = experiment: Growth inhibition of human HL-60(TB) cells after 48 hrs by sulforhodamine B assay; assay type: functional; conditions: HL-60, 48 h
# NCI-H460 = experiment: Growth inhibition of human NCI-H460 cells after 48 hrs by sulforhodamine B assay; assay type: functional; conditions: NCI-H460, 48 h
# SK-OV-3 = experiment: Growth inhibition of human SKOV3 cells after 48 hrs by sulforhodamine B assay; assay type: functional; conditions: SK-OV-3, 48 h
# DU-145 = experiment: Growth inhibition of human DU145 cells after 48 hrs by sulforhodamine B assay; assay type: functional; conditions: DU-145, 48 h
# [4] = Growth inhibition of human Hs 578T cells after 48 hrs by sulforhodamine B assay; assay type: functional
# NCI-H522 = experiment: Growth inhibition of human NCI-H522 cells after 48 hrs by sulforhodamine B assay; assay type: functional; conditions: NCI-H522, 48 h
# OVCAR-5 = experiment: Growth inhibition of human OVCAR5 cells after 48 hrs by sulforhodamine B assay; assay type: functional; conditions: OVCAR-5, 48 h
smiles,measurement,setting,value
C=C(c1ccc(OC)c(O)c1)c1cc(OC)c(OC)c(OC)c1,IC50,[1],1.5 µM
COc1c(F)ccc(C(=O)N2c3ccccc3Sc3ccccc32)c1F,GI50,KM12,4.01 µM
same,GI50,UO-31,6.52 µM
same,GI50,Malme-3M,3.09 µM
same,GI50,A549,4.07 µM
same,GI50,HT-29,3.24 µM
same,GI50,CCRF-CEM,5 µM
same,GI50,MOLT-4,4.29 µM
same,GI50,SR,2.33 µM
same,GI50,OVCAR-4,10.3 µM
same,GI50,SF-268,6.5 µM
same,GI50,MDA-MB-468,1.7 µM
same,GI50,CAKI-1,4.01 µM
same,GI50,SNB-75,2.32 µM
same,GI50,OVCAR-8,10 µM
same,GI50,K562,3.24 µM
same,GI50,NCI-H23,4.89 µM
same,inhibition,Ovis aries,10%
same,GI50,UACC-62,2.68 µM
same,GI50,SK-MEL-28,4.93 µM
same,GI50,BT-549,5.21 µM
same,GI50,SW-620,3.68 µM
same,GI50,IGROV-1,4.87 µM
same,GI50,M14,3.86 µM
same,GI50,HOP-62,8.37 µM
same,GI50,ACHN,7.96 µM
same,GI50,[2],2.97 µM
same,GI50,786-0,7.57 µM
same,GI50,[3],11.7 µM
same,GI50,SF-539,5.03 µM
same,GI50,MDA-MB-231,3.66 µM
same,GI50,SK-MEL-2,3.45 µM
same,GI50,SK-MEL-5,2.95 µM
same,GI50,LOX IMVI,4.72 µM
same,GI50,MCF7,5.5 µM
same,GI50,RXF 393,2.29 µM
same,GI50,HCT-15,3.07 µM
same,GI50,A498,2.22 µM
same,GI50,TK-10,10.2 µM
same,GI50,OVCAR-3,4.2 µM
same,GI50,COLO 205,6.47 µM
same,GI50,T47D,5.24 µM
same,GI50,HCT-116,3.6 µM
same,GI50,UACC-257,6.51 µM
same,GI50,SF-295,6.1 µM
same,GI50,PC-3,2.84 µM
same,GI50,RPMI-8226,3.22 µM
same,GI50,SN12C,6.07 µM
same,GI50,MDA-MB-435,1.8 µM
same,GI50,HL-60(TB),3.99 µM
same,GI50,NCI-H460,3.67 µM
same,GI50,SK-OV-3,12.2 µM
same,GI50,DU-145,14 µM
same,GI50,[4],6.92 µM
same,GI50,NCI-H522,2.7 µM
same,GI50,OVCAR-5,24.1 µM
CN(C)Cc1cn(C(=O)N2c3ccccc3Sc3ccccc32)c2ccccc12,GI50,KM12,1.89 µM
same,GI50,UO-31,1.61 µM
same,GI50,Malme-3M,1.99 µM
same,GI50,A549,1.68 µM
same,GI50,HT-29,1.79 µM
same,GI50,CCRF-CEM,2 µM
same,GI50,MOLT-4,2.13 µM
same,GI50,SR,1.76 µM
same,GI50,OVCAR-4,2.04 µM
same,GI50,SF-268,2.92 µM
same,GI50,MDA-MB-468,1.16 µM
same,GI50,CAKI-1,1.53 µM
same,GI50,SNB-75,1.65 µM
same,GI50,OVCAR-8,1.78 µM
same,GI50,K562,1.95 µM
same,GI50,NCI-H23,4.85 µM
same,inhibition,Ovis aries,9%
same,GI50,UACC-62,1.72 µM
same,GI50,SK-MEL-28,1.72 µM
same,GI50,BT-549,2.96 µM
same,GI50,SW-620,1.84 µM
same,GI50,IGROV-1,1.73 µM
same,GI50,M14,1.97 µM
same,GI50,HOP-62,1.68 µM
same,GI50,ACHN,1.5 µM
same,GI50,[2],2.53 µM
same,GI50,786-0,1.75 µM
same,GI50,[3],1.85 µM
same,GI50,SF-539,1.64 µM
same,GI50,MDA-MB-231,1.17 µM
same,GI50,SK-MEL-2,2.23 µM
same,GI50,SK-MEL-5,1.6 µM
same,GI50,LOX IMVI,1.8 µM
same,GI50,MCF7,1.79 µM
same,GI50,RXF 393,1.21 µM
same,GI50,HCT-15,1.7 µM
same,GI50,A498,1.24 µM
same,GI50,TK-10,1.73 µM
same,GI50,OVCAR-3,1.95 µM
same,GI50,COLO 205,1.85 µM
same,GI50,T47D,2.04 µM
same,GI50,HCT-116,1.74 µM
same,GI50,UACC-257,1.6 µM
same,GI50,SF-295,1.75 µM
same,GI50,PC-3,1.62 µM
same,GI50,RPMI-8226,1.84 µM
same,GI50,SN12C,1.98 µM
same,GI50,MDA-MB-435,1.74 µM
same,GI50,HL-60(TB),2.22 µM
same,GI50,NCI-H460,1.81 µM
same,GI50,SK-OV-3,2.02 µM
same,GI50,DU-145,1.98 µM
same,GI50,[4],2.08 µM
same,GI50,NCI-H522,1.9 µM
same,GI50,OVCAR-5,1.5 µM
